The text below walks through data of US20120245184A1 (Aderans Research Institute, Inc., priority 2006, published 2012).

By EC50 is commonly meant the concentration at which the effect is half-maximal.

The structures appear in SMILES notation. Counter-ions that a name gives are not always drawn.

Assay [1] concerns sonic hedgehog pathway. In words: Hedgehog reporter assay (gli-luciferase) in TM3 cells. To be noted: TM3 mouse Leydig cells, gli-luciferase reporter; read-out: TM3 Avg. EC50. Format: cell-based, mouse. An outline of the steps: (§1)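 Stable gli-luciferase reporter lines (mouse TM3; human Daoy and HEPM) switched to 0.5% FBS medium, given compounds at 1-5 μM with or without octyl-modified hedgehog protein (1-5 ng/ml) for 24 hrs. Luminescence read; eleven-point 1:3 dose curves, activation expressed as percentage of plate controls (AMAX).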
Background: In a reporter assay the amount or activity of a reporter protein is the signal.

Assay [2] concerns sonic hedgehog pathway. In words: Human hedgehog reporter assay HEPM-GliLuc (HGL). The assay is classed as cell-based. To be noted: HepM human embryonic palatal mesenchymal cells, gli-luciferase reporter; read-out: HEPM Avg. EC50. From the text: (§2) Mouse (TM3: mouse Leydig cells; S12: mouse embryonic mesenchymal cells) and human (Daoy: human medulloblastoma cell; HepM: human embryonic palatal mesenchymal cell) cell lines are used to screen small molecules for their ability to modulate the activity of the sonic hedgehog pathway (Table 1, Table 2, and Table 3). Stable hedgehog pathway reporter cell lines are established by specific antibiotic selection following transfection of a reporter plasmid containing a luciferase gene located directly downstream from the gli promoter. Consequently, any observable changes in cellular luciferase activity may be attributed to changes in sonic hedgehog pathway activity in mouse and human cells, respectively, since gli is the major by-product of this pathway. To calculate activity, we generate an eleven point dose curve for each compound using 1:3 dilutions in 96 well assay plates. Each plate tested also contains low and high control to establish maximal pathway activation so to establish/compare a percentage activation of each tested compound (AMAX) on respective plates.
(§3) Stable hedgehog pathway reporter cell lines are established following specific antibiotic selection following transfection of a reporter plasmid
(§4) In short, typically cells are plated in MicroTiter-plates at 10,000-20,000 cells per well, in growth media (containing 10%-20% FBS). After 48-72 hrs (HGL and DGL respectively) the media in the assay plates is switched to low-serum containing media (0.5% FBS). At that time compounds are added (at 1-5 μM) to the assay plates, in the presence or absence of hedgehog protein (octyl-modified version; 1-5 ng/ml). After another 24 hrs of incubation, the media from the assay plates is discarded and replaced with luciferase assay-mix. Subsequently, plates are incubated at RT for ˜15-30 mins and then read in a luminometer. [note: addition of the Hedgehog protein, although not critical, will sensitize the assay allowing the identification of weak actives].

The subject of assay [3] is sonic hedgehog pathway. In words: Hedgehog reporter assay (gli-luciferase) in S12 cells. The assay is classed as cell-based. Conditions: S12 mouse embryonic mesenchymal cells.
Description: as §2, with “respective plates. Also we calculate EC50 values, or a concentration where the pathway will be exactly 50% activated, for each tested compound to determine potency. In these cell lines, compounds that register >20% AMAX values are considered active.” for “respective plates.”
as §3, §4

Assay [4] has as its system sonic hedgehog pathway. In words: Human hedgehog reporter assay Daoy-GliLuc (DGL). The assay is classed as cell-based. Put shortly:
as §1

Where [5] appears, read: Daoy human medulloblastoma cells, gli-luciferase reporter, read-out: Daoy Avg. EC50.
[6] abbreviates: Daoy human medulloblastoma cells, gli-luciferase reporter, read-out: Human Daoy (Gli-Luc) Avg. EC50.
The mark [7] stands for this setting: Homo sapiens, Daoy, read-out: Human Daoy (Gli-Luc) Avg. EC50 (nM).

As to `CNC1CCC(N(Cc2cc(-c3ccc(C(N)=O)cc3)ccc2OC)C(=O)c2sc3ccccc3c2Cl)CC1` (stereo not drawn) [Compound 316, 3-Chloro-benzo[b]thiophene-2-carboxylic acid (4′-carbamoyl-4-methoxy-biphenyl-3-ylmethyl)-(4-methylamino-cyclohexyl)-amide hydrochloride], the 50% effective concentration (EC50) in the assay with sonic hedgehog pathway [1], in the assay with sonic hedgehog pathway [2] and with sonic hedgehog pathway [3] (read-out: S12 Avg. EC50) was less than 0.05 µM throughout.

`CNC1CCC(N(Cc2cc(-c3ccc(C(=O)N(C)C)cc3)ccc2OC)C(=O)c2sc3ccccc3c2Cl)CC1` (stereo not drawn) [Compound 317 (R19), 3-Chloro-benzo[b]thiophene-2-carboxylic acid (4′-dimethylcarbamoyl-4-methoxy-biphenyl-3-ylmethyl)-(4-methylamino-cyclohexyl)-amide hydrochloride]: the EC50 in the assay with sonic hedgehog pathway [1], in the assay with sonic hedgehog pathway [2] and in the assay on sonic hedgehog pathway [3] (read-out: S12 Avg. EC50) was less than 0.05 µM in each case.

Turning to `CNC1CCC(N(Cc2cc(-c3ccncc3)ccc2O)C(=O)c2sc3c(F)ccc(F)c3c2Cl)CC1` (stereo not drawn) [Compound 368, 3-Chloro-4,7-difluoro-benzo[b]thiophene-2-carboxylic acid (2-hydroxy-5-pyridin-4-yl-benzyl)-(4-methylamino-cyclohexyl)-amide dihydrochloride], the results for the EC50 in the assay with sonic hedgehog pathway [4] (setting [5]), with sonic hedgehog pathway [2] and in the assay on sonic hedgehog pathway [3] (read-out: S12 Avg. EC50) were less than 50 nM, less than 0.05 µM and less than 0.05 µM, respectively.

Consider `CNC1CCC(N(Cc2cc(-c3ccnc(F)c3)ccc2OC)C(=O)c2sc3c(F)ccc(F)c3c2Cl)CC1` (stereo not drawn) [Compound 384, 3-Chloro-4,7-difluoro-benzo[b]thiophene-2-carboxylic acid[5-(2-fluoro-pyridin-4-yl)-2-methoxy-benzyl]-(4-methylamino-cyclohexyl)-amide], for which the values for the half-maximal effective concentration (EC50) in the assay on sonic hedgehog pathway [4] (setting [6]) and with sonic hedgehog pathway [3] (read-out: Mouse S12 Avg. EC50) were less than 50 nM and less than 0.05 µM, respectively.

Take `CNC1CCC(N(Cc2cc(-c3ccnc(F)c3)ccc2OC)C(=O)c2sc3cccc(F)c3c2Cl)CC1` (stereo not drawn) [Compound 385, 3-Chloro-4-fluoro-benzo[b]thiophene-2-carboxylic acid[5-(2-fluoro-pyridin-4-yl)-2-methoxy-benzyl]-(4-methylamino-cyclohexyl)-amide]: the 50% effective concentration (EC50) with sonic hedgehog pathway [4] (setting [6]) is less than 50 nM; in the assay on sonic hedgehog pathway [3] (read-out: Mouse S12 Avg. EC50) it was less than 0.05 µM.

Take `CN[C@H]1CC[C@@H](N(Cc2cc(-c3ccncc3F)ccc2OC)C(=O)c2sc3c(F)ccc(F)c3c2Cl)CC1` [Compound 386, 3-Chloro-4,7-difluoro-benzo[b]thiophene-2-carboxylic acid[5-(3-fluoro-pyridin-4-yl)-2-methoxy-benzyl]-(4-methylamino-cyclohexyl)-amide]: the EC50 is less than 50 nM with sonic hedgehog pathway [4] (setting [6]) and less than 0.05 µM in the assay with sonic hedgehog pathway [3] (read-out: Mouse S12 Avg. EC50).

Regarding `CNC1CCC(N(Cc2cc(-c3ccncc3F)ccc2OC)C(=O)c2sc3cccc(F)c3c2Cl)CC1` (stereo not drawn) [Compound 387, 3-Chloro-4-fluoro-benzo[b]thiophene-2-carboxylic acid[5-(3-fluoro-pyridin-4-yl)-2-methoxy-benzyl]-(4-methylamino-cyclohexyl)-amide], the half-maximal effective concentration (EC50) with sonic hedgehog pathway [4] (setting [6]) is less than 50 nM; in the assay with sonic hedgehog pathway [3] (read-out: Mouse S12 Avg. EC50) it was less than 0.05 µM.

Regarding `CNC1CCC(N(Cc2cc(-c3ccc(S(N)(=O)=O)cc3)ccc2OC)C(=O)c2sc3c(F)ccc(F)c3c2Cl)CC1` (stereo not drawn) [Compound 388, 3-Chloro-4,7-difluoro-benzo[b]thiophene-2-carboxylic acid(4-methoxy-4′-sulfamoyl-biphenyl-3-ylmethyl)-(4-methylamino-cyclohexyl)-amide hydrochloride], the EC50 in the assay with sonic hedgehog pathway [4] (setting [6]) was less than 50 nM; with sonic hedgehog pathway [3] (read-out: Mouse S12 Avg. EC50), less than 0.05 µM.

With `CCS(=O)(=O)c1ccc(-c2ccc(OC)c(CN(C(=O)c3sc4c(F)ccc(F)c4c3Cl)C3CCC(NC)CC3)c2)cc1` (stereo not drawn) [Compound 389, 3-Chloro-4,7-difluoro-benzo[b]thiophene-2-carboxylic acid (4′-ethanesulfonyl-4-methoxy-biphenyl-3-ylmethyl)-(4-methylamino-cyclohexyl)-amide hydrochloride], the EC50 in the assay with sonic hedgehog pathway [4] (setting [7]) was less than 50 nM; with sonic hedgehog pathway [3] (read-out: Mouse S12 Avg. EC50), less than 0.05 µM.

Take `COc1ccc(-c2ccc(S(C)(=O)=O)cc2)cc1CN(C(=O)c1sc2c(F)ccc(F)c2c1Cl)C1CCC(N)CC1` (stereo not drawn) [Compound 390, 3-Chloro-4,7-difluoro-benzo[b]thiophene-2-carboxylic acid (4-amino-cyclohexyl)-(4′-methanesulfonyl-4-methoxy-biphenyl-3-ylmethyl)-amide hydrochloride]: the half-maximal effective concentration (EC50) with sonic hedgehog pathway [4] (setting [7]) is less than 50 nM; in the assay on sonic hedgehog pathway [3] (read-out: Mouse S12 Avg. EC50), less than 0.05 µM.

Consider `CNC1CCC(N(Cc2cc(-c3ccc(S(=O)(=O)N(C)C)cc3)ccc2OC)C(=O)c2sc3c(F)ccc(F)c3c2Cl)CC1` (stereo not drawn) [Compound 391, 3-Chloro-4,7-difluoro-benzo[b]thiophene-2-carboxylic acid (4′-dimethylsulfamoyl-4-methoxy-biphenyl-3-ylmethyl)-(4-methylamino-cyclohexyl)-amide trifluoroacetate], for which the half-maximal effective concentration (EC50) is less than 50 nM in the assay with sonic hedgehog pathway [4] (setting [7]) and less than 0.05 µM in the assay on sonic hedgehog pathway [3] (read-out: Mouse S12 Avg. EC50).

In the case of `CNC1CCC(N(Cc2cc(-c3ccncc3)ccc2C)C(=O)c2sc3c(F)ccc(F)c3c2Cl)CC1` (stereo not drawn) [Compound 392, 3-Chloro-4,7-difluoro-benzo[b]thiophene-2-carboxylic acid (4-methylamino-cyclohexyl)-(2-methyl-5-pyridin-4-yl-benzyl)-amide bis(trifluoroacetate)], the results for the EC50 in the assay with sonic hedgehog pathway [4] (setting [6]) and with sonic hedgehog pathway [3] (read-out: Mouse S12 Avg. EC50) were less than 50 nM and less than 0.05 µM, respectively.

In the case of `C=Cc1ccc(-c2ccc(OC)c(CN(C(=O)c3sc4c(F)ccc(F)c4c3Cl)[C@H]3CC[C@H](N)CC3)c2)cc1` [Compound 393, N-((1r,4r)-4-aminocyclohexyl)-3-chloro-4,7-difluoro-N-((4-methoxy-4′-vinylbiphenyl-3-yl)methyl)benzo[b]thiophene-2-carboxamide], the concentration giving a half-maximal response (EC50) is 50 to 250 nM with sonic hedgehog pathway [4] (setting [6]) and 0.05 to 0.25 µM with sonic hedgehog pathway [3] (read-out: Mouse S12 Avg. EC50).

Take `CN[C@H]1CC[C@@H](N(Cc2cc(OC)cc(-c3ccncc3)c2)C(=O)C2=C(Cl)c3c(F)ccc(F)c3C2)CC1` [Compound 394, 3-Chloro-4,7-difluoro-benzo[b]thiophene-2-carboxylic acid(3-methoxy-5-pyridin-4-yl-benzyl)-(4-methylamino-cyclohexyl)-amide bis(trifluoroacetate)]: the half-maximal effective concentration (EC50) is less than 50 nM with sonic hedgehog pathway [4] (setting [6]) and less than 0.05 µM in the assay on sonic hedgehog pathway [3] (read-out: Mouse S12 Avg. EC50).

Turning to `CCc1ccc(-c2ccncc2)cc1CN(C(=O)C1=C(Cl)c2c(F)ccc(F)c2C1)[C@H]1CC[C@@H](NC)CC1` [Compound 395, 3-Chloro-4,7-difluoro-benzo[b]thiophene-2-carboxylic acid(2-ethyl-5-pyridin-4-yl-benzyl)-(4-methylamino-cyclohexyl)-amide dihydrochloride], the EC50 in the assay with sonic hedgehog pathway [4] (setting [6]) was in the range of 50 to 250 nM; with sonic hedgehog pathway [3] (read-out: Mouse S12 Avg. EC50), 0.05 to 0.25 µM.

Turning to `CNC1CCC(N(Cc2cc(-c3ccccc3SC)ccc2OC)C(=O)c2sc3c(F)ccc(F)c3c2Cl)CC1` (stereo not drawn) [Compound 408, 3-Chloro-4,7-difluoro-benzo[b]thiophene-2-carboxylic acid (4-methoxy-2′-methylsulfanyl-biphenyl-3-ylmethyl)-(4-methylamino-cyclohexyl)-amide hydrochloride], the EC50 in the assay on sonic hedgehog pathway [4] (setting [5]) fell in the range of 250 to 1000 nM; in the assay with sonic hedgehog pathway [3] (read-out: S12 Avg. EC50), 0.25 to 1 µM.

With `COc1ccc(-c2cccnc2)cc1CN(C(=O)c1sc2cccc(F)c2c1Cl)[C@H]1CC[C@H](N)CC1` [Compound 410, 3-Chloro-4-fluoro-benzo[b]thiophene-2-carboxylic acid(4-amino-cyclohexyl)-(2-methoxy-5-pyridin-3-yl-benzyl)-amide], the EC50 in the assay on sonic hedgehog pathway [4] (setting [5]) was less than 50 nM; in the assay with sonic hedgehog pathway [3] (read-out: S12 Avg. EC50), less than 0.05 µM.

`COc1ccc(-c2cncc(F)c2)cc1CN(C(=O)c1sc2c(F)ccc(F)c2c1Cl)[C@H]1CC[C@H](N)CC1` [Compound 416]: the EC50 in the assay with sonic hedgehog pathway [4] (setting [5]) was 50 to 250 nM; with sonic hedgehog pathway [3] (read-out: S12 Avg. EC50) it was less than 0.05 µM.
